Results on seven molecules are retold here after patent publication US20230286973A1, “PROTEIN SECRETION INHIBITORS” (KEZAR LIFE SCIENCES, priority 2020, published 2023).

A short description of series [1]: Liver Microsome Stability Assay (human). The note with it: human liver microsomes, with NADPH, 1.0 uM compound.
Experimental: (§1) Stability of a compound was assessed in the presence of liver microsomes from various sources—mouse, rat, monkey and human liver microsomes. 1.0 uM compound, 0.4% DMSO in 0.1 M Potassium Phosphate with 1.0 mg/mL liver microsomes, were incubated at 37° C. with or without 1 mM NADPH. The samples were quenched at 0, and 30 minutes.
Series [2] has as its system PD1-ss+10aa/Gaussia Luciferase. In words: Dox-Induced PD1-ss-Gluc Assay. Format: cell-based. The note with it: 24 hr Dox induction; 293FRT/TO cells; read-out: 24 hr Dox Inducible PD1ssGluc 293FRT/TO: Mean IC50. A digest of the protocol:
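The cell line was made by transfecting Flp-In 293 T-REx cells with a PD1 signal sequence+10aa–Gaussia luciferase fusion under T-REx control and selecting with hygromycin and blasticidin. Cells were seeded, and next day compound plus doxycycline was added at 37 °C, 5% CO2.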

Series [3] deals with TNFα-FL/Gaussia Luciferase. In words: Dox Induced TNFα-FL-Gluc Assay. Format: cell-based. The conditions noted are these: for IC50: 24 hr Dox induction, 293FRT/TO cells, read-out: 24 hr Dox Inducible TNFaFLGluc 293FRT/TO: Mean IC50; for 24 hr Dox Inducible TNFaFLGluc 293FRT/TO: TNF/PD1: ratio of TNFaFLGluc IC50 to PD1ssGluc IC50. Put shortly:
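Cell line: stable Flp-In 293 T-REx, TNFα-FL(1-233)-Gaussia luciferase fusion, T-REx-inducible. Plated day -1; compounds in DMSO/media + doxycycline, 37 °C, 5% CO2. Undefined stereocentres = mixture tested.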

The test system of series [4] is IL-2-FL/Gaussia Luciferase. In words: Dox Induced IL2-FL-Gluc Assay. It counts as cell-based. The note with it: for IC50: 24 hr Dox induction, 293FRT/TO cells, read-out: 24 hr Dox Inducible IL2FLGluc 293FRT/TO: Mean IC50; for 24 hr Dox Inducible IL2FLGluc 293FRT/TO: IL2/PD1: ratio of IL2FLGluc IC50 to PD1ssGluc IC50. Put shortly: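 Stable Flp-In 293 T-REx line, Tet-regulated IL-2 (aa 1-153)–Gaussia luciferase fusion; hygromycin/blasticidin selected. Plated day -1; compound + doxycycline added next day; 37° C, 5% CO2.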

Series [5] deals with HER3-ss+4aa/Gaussia Luciferase. Briefly: Dox-Induced Her3-ss-Gluc Assay. It counts as cell-based. The note with it: 24 hr Dox induction; 293FRT/TO cells; read-out: 24 hr Dox Inducible Her3(ss + 4)Gluc 293FRT/TO: Mean IC50. Put shortly: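 Flp-In 293 T-REx cells, stable HER3-ss+4aa/Gaussia luciferase insert, hygromycin/blasticidin selected; plated day before; compound in DMSO/media + doxycycline; 37° C., 5% CO2.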

In series [6] the test system is multiple myeloma cell line NCI-H929. In words: H929 Cell Viability Assay. Format: cell-based, human. The note with it: Homo sapiens, NCI-H929, 48 h, NCI-H929 cells, Celltiter-Glo. Put shortly:
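Cells in RPMI 1640/10% FBS; compound dilutions in DMSO/media; 48 h, 37° C, 5% CO2; CellTiter-Glo luciferase readout for viability.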
(ATP-based viability assays read luminescence as a measure of living cells.)

Series [7] relates to multiple myeloma cell line U266B1. In words: U266 Cell Viability Assay. Format: cell-based, human. The conditions noted are these: Homo sapiens, U-266, 48 h, U266B1 cells, Celltiter-Glo. Put shortly: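 Luminescent ATP read-out (CellTiter-Glo) after 48 h compound exposure at 37° C., 5% CO2; cells maintained in RPMI 1640/10% FBS/2 mM glutamine/pen-strep, compounds diluted in DMSO/media.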

Series [8] in a line: Liver Microsome Stability Assay (monkey). The note with it: monkey liver microsomes, with NADPH, 1.0 uM compound. (In general: Liver microsomes are vesicles of endoplasmic reticulum, rich in cytochrome P450 enzymes.)
Experimental: as §1
The nature of series [9]: Liver Microsome Stability Assay (rat). The note with it: rat liver microsomes, with NADPH, 1.0 uM compound.
Experimental: as §1
The nature of series [10]: Liver Microsome Stability Assay (mouse). The note with it: mouse liver microsomes, with NADPH, 1.0 uM compound.
Experimental: as §1

Usually EC50 stands for the concentration that produces a half-maximal response. Consider `CS(=O)(=O)N1CCC(Oc2ccc(N3CCC[C@@H]3c3csc(NC(=O)c4cccn4Cc4ccnc(F)c4)n3)cc2)CC1` [Compound A128, (R)-1-((2-fluoropyridin-4-yl)methyl)-N-(4-(1-(4-((1-(methylsulfonyl)piperidin-4-yl)oxy)phenyl)pyrrolidin-2-yl)thiazol-2-yl)-1H-pyrrole-2-carboxamide], for which, in series [1], the “Liver Microsome Stability (Multiple Species): Human - % Remaining after 30 min w/NADPH” value is 28%. For the same molecule, the IC50 was determined as 37.9 nM in [2], 495 nM in series [3], 59.6 nM in series [4] and 68.1 nM in [5]. In [3], the “24 hr Dox Inducible TNFaFLGluc 293FRT/TO: TNF/PD1” value was 13.1. Moreover, the “24 hr Dox Inducible IL2FLGluc 293FRT/TO: IL2/PD1” value in series [4] is given as 1.6. Moreover, the half-maximal effective concentration (EC50) in [6] is 847 nM; in [7], above 25000 nM. For the same molecule, in series [8], the “Liver Microsome Stability (Multiple Species): Monkey - % Remaining after 30 min w/NADPH” value is listed as 4.62%. Also, the “Liver Microsome Stability (Multiple Species): Rat - % Remaining after 30 min w/NADPH” value in series [9] stood at 31.3%. Also, the “Liver Microsome Stability (Multiple Species): Mouse - % Remaining after 30 min w/NADPH” value in series [10] is 25.5%.

In the case of `COc1cc(N2CCC[C@@H]2c2csc(NC(=O)c3cccn3Cc3ccnc(F)c3)n2)ccc1OC1CCN(C(C)=O)CC1` [Compound A129, (R)-N-(4-(1-(4-((1-acetylpiperidin-4-yl)oxy)-3-methoxyphenyl)pyrrolidin-2-yl)thiazol-2-yl)-1-((2-fluoropyridin-4-yl)methyl)-1H-pyrrole-2-carboxamide], the “Liver Microsome Stability (Multiple Species): Human - % Remaining after 30 min w/NADPH” value in [1] stood at 15.7%. The IC50 in series [2] was 9.58 nM; in [3], 303 nM; in series [4], 21.2 nM; in series [5], 15.5 nM. Also, the “24 hr Dox Inducible TNFaFLGluc 293FRT/TO: TNF/PD1” value in series [3] was determined as 31.6. Further, the “24 hr Dox Inducible IL2FLGluc 293FRT/TO: IL2/PD1” value in [4] is 2.2. The EC50 was 398 nM in series [6] and above 25000 nM in series [7]. The “Liver Microsome Stability (Multiple Species): Monkey - % Remaining after 30 min w/NADPH” value in series [8] is listed as 8.34%. In series [9], the “Liver Microsome Stability (Multiple Species): Rat - % Remaining after 30 min w/NADPH” value amounted to 0.45%. Moreover, in series [10], the “Liver Microsome Stability (Multiple Species): Mouse - % Remaining after 30 min w/NADPH” value was 6.21%.

On to `NC(=O)N1CC(Oc2ccc(N3CCC[C@@H]3c3csc(NC(=O)c4cccn4Cc4ccnc(F)c4)n3)cc2)C1` [Compound A130, (R)-N-(4-(1-(4-((1-carbamoylazetidin-3-yl)oxy)phenyl)pyrrolidin-2-yl)thiazol-2-yl)-1-((2-fluoropyridin-4-yl)methyl)-1H-pyrrole-2-carboxamide], for which the “Liver Microsome Stability (Multiple Species): Human - % Remaining after 30 min w/NADPH” value in series [1] came to 32.5%. In addition, the IC50 is 15.8 nM in [2], 683 nM in series [3], 65.8 nM in series [4] and 27.8 nM in [5]. Moreover, the “24 hr Dox Inducible TNFaFLGluc 293FRT/TO: TNF/PD1” value in series [3] was found to be 43.1. The “24 hr Dox Inducible IL2FLGluc 293FRT/TO: IL2/PD1” value in [4] was determined as 4.2. Further, the EC50 in series [6] was 731 nM; in series [7] it was above 25000 nM. The “Liver Microsome Stability (Multiple Species): Monkey - % Remaining after 30 min w/NADPH” value in series [8] was found to be 25.4%. For the same molecule, in [9], the “Liver Microsome Stability (Multiple Species): Rat - % Remaining after 30 min w/NADPH” value turned out to be 52.7%. Also, the “Liver Microsome Stability (Multiple Species): Mouse - % Remaining after 30 min w/NADPH” value in series [10] was determined as 53%.

For `CN(C)C(=O)N1CC(Oc2ccc(N3CCC[C@@H]3c3csc(NC(=O)c4cccn4Cc4ccnc(F)c4)n3)cc2)C1` [Compound A131, (R)-N-(4-(1-(4-((1-(dimethylcarbamoyl)azetidin-3-yl)oxy)phenyl)pyrrolidin-2-yl)thiazol-2-yl)-1-((2-fluoropyridin-4-yl)methyl)-1H-pyrrole-2-carboxamide], the “Liver Microsome Stability (Multiple Species): Human - % Remaining after 30 min w/NADPH” value in series [1] amounted to 11.8%. The IC50 in series [2] is 30.9 nM; in [3], 508 nM; in series [4], 64.7 nM; in [5], 48.1 nM. Moreover, the “24 hr Dox Inducible TNFaFLGluc 293FRT/TO: TNF/PD1” value in [3] is given as 16.4. In addition, in series [4], the “24 hr Dox Inducible IL2FLGluc 293FRT/TO: IL2/PD1” value is recorded as 2.1. Also, the figures for the concentration giving a half-maximal response (EC50) in series [6] and in series [7] were 1110 nM and above 25000 nM, respectively. Also, the “Liver Microsome Stability (Multiple Species): Monkey - % Remaining after 30 min w/NADPH” value in series [8] was 6.3%. Also, in series [9], the “Liver Microsome Stability (Multiple Species): Rat - % Remaining after 30 min w/NADPH” value stood at 42.9%. Also, the “Liver Microsome Stability (Multiple Species): Mouse - % Remaining after 30 min w/NADPH” value in series [10] is reported as 20.4%.

Turning to `CS(=O)(=O)N1CC(Oc2ccc(N3CCC[C@@H]3c3csc(NC(=O)c4cccn4Cc4ccnc(F)c4)n3)cc2)C1` [Compound A132, (R)-1-((2-fluoropyridin-4-yl)methyl)-N-(4-(1-(4-((1-(methylsulfonyl)azetidin-3-yl)oxy)phenyl)pyrrolidin-2-yl)thiazol-2-yl)-1H-pyrrole-2-carboxamide], the “Liver Microsome Stability (Multiple Species): Human - % Remaining after 30 min w/NADPH” value in [1] was 15.1%. For the same molecule, the IC50 in [2] turned out to be 57.3 nM; in series [3] it was 1060 nM; in series [4] it was 105 nM; in [5] it was 95 nM. For the same molecule, the “24 hr Dox Inducible TNFaFLGluc 293FRT/TO: TNF/PD1” value in [3] came to 18.5. Also, in series [4], the “24 hr Dox Inducible IL2FLGluc 293FRT/TO: IL2/PD1” value came to 1.8. Also, the EC50 in [6] was 2520 nM; in series [7], above 25000 nM. Moreover, in [8], the “Liver Microsome Stability (Multiple Species): Monkey - % Remaining after 30 min w/NADPH” value came out at 8.42%. Also, the “Liver Microsome Stability (Multiple Species): Rat - % Remaining after 30 min w/NADPH” value in [9] is 47.1%. The “Liver Microsome Stability (Multiple Species): Mouse - % Remaining after 30 min w/NADPH” value in series [10] is 34.6%.

As to `CC(=O)N1CCC(Oc2ccc(N3CCC[C@@H]3c3csc(NC(=O)c4cccn4Cc4ccnc(F)c4)n3)c(C#N)c2)CC1` [Compound A133, (R)-N-(4-(1-(4-((1-acetylpiperidin-4-yl)oxy)-2-cyanophenyl)pyrrolidin-2-yl)thiazol-2-yl)-1-((2-fluoropyridin-4-yl)methyl)-1H-pyrrole-2-carboxamide], the “Liver Microsome Stability (Multiple Species): Human - % Remaining after 30 min w/NADPH” value in [1] came out at 0.61%. Besides, the IC50 was found to be 61 nM in [2], 893 nM in series [3], 81.7 nM in series [4] and 64.2 nM in series [5]. For the same molecule, the “24 hr Dox Inducible TNFaFLGluc 293FRT/TO: TNF/PD1” value in series [3] amounted to 14.6. In addition, in series [4], the “24 hr Dox Inducible IL2FLGluc 293FRT/TO: IL2/PD1” value was 1.3. For the same molecule, the half-maximal effective concentration (EC50) is 2010 nM in [6] and above 25000 nM in series [7]. Further, the “Liver Microsome Stability (Multiple Species): Monkey - % Remaining after 30 min w/NADPH” value in [8] worked out at 0.15%. In series [9], the “Liver Microsome Stability (Multiple Species): Rat - % Remaining after 30 min w/NADPH” value was 1.42%. In addition, the “Liver Microsome Stability (Multiple Species): Mouse - % Remaining after 30 min w/NADPH” value in [10] is reported as 0.98%.

On to `O=C(Nc1nc([C@H]2CCCN2c2ccc(OCCO)cc2)cs1)c1cccn1Cc1ccnc(F)c1` [Compound A134, (R)-1-((2-fluoropyridin-4-yl)methyl)-N-(4-(1-(4-(2-hydroxyethoxy)phenyl)pyrrolidin-2-yl)thiazol-2-yl)-1H-pyrrole-2-carboxamide], for which the “Liver Microsome Stability (Multiple Species): Human - % Remaining after 30 min w/NADPH” value in series [1] is 19.3%. Further, the IC50 was found to be 27.3 nM in series [2], 526 nM in series [3], 42.4 nM in series [4] and 47.8 nM in [5]. Also, in series [3], the “24 hr Dox Inducible TNFaFLGluc 293FRT/TO: TNF/PD1” value came out at 19.3. Also, the “24 hr Dox Inducible IL2FLGluc 293FRT/TO: IL2/PD1” value in series [4] is 1.6. Moreover, the EC50 in series [6] is 849 nM; in [7] it was above 25000 nM. In addition, the “Liver Microsome Stability (Multiple Species): Monkey - % Remaining after 30 min w/NADPH” value in [8] amounted to 13.5%. The “Liver Microsome Stability (Multiple Species): Rat - % Remaining after 30 min w/NADPH” value in series [9] is given as 13.6%. For the same molecule, the “Liver Microsome Stability (Multiple Species): Mouse - % Remaining after 30 min w/NADPH” value in series [10] is 2.18%.
